How the values were obtained:
RT (Y181C) = biological target: T1, RT (Y181C) (Human immunodeficiency virus type 1 group M subtype B, UniProt P04585, Y768C); format: biochemical; conditions: Y181C mutant HIV-1 RT
T1 construct: Heterodimeric RT was eluted using a descending gradient; made in house; host or cells: E. coli
Excerpt: (§1) REVERSE TRANSCRIPT (RT) ASSAYS
(§2) Among the enzymes for which Human Immunodeficiency Virus (HIV-1) encodes is a reverse transcriptase (1), so-named because it transcribes a DNA copy from an RNA template. This activity can be quantitatively measured in a cell-free enzyme assay, which has been previously described (2), and is based upon the observation that reverse transcriptase is able to use a synthetic template [poly r(C) primed with oligo d(G)] to transcribe a radio-labelled, acid-precipitable DNA strand utilizing ^3 H-dGTP as a substrate. The assay described below utilizes the wild type (WT) enzyme, which is the predominant form of the enzyme observed in patients infected with HIV-1.
Purification of recombinant reverse transcriptase was performed using a combination of methods previously described (5). This procedure is summarized briefly as follows: Bacteria were pelleted E. Coli containing RT-1 wt or RT-1 (Y181 C) were suspended in 50 mM MES, pH 6.0 containing 10% glycerol, lysed in a french press, centrifuged, and the supernates discarded. […]
The 2.4× concentrated stock reaction mixture is aliquoted and stored at -20° C. […] The filters are then dried, placed into plastic bags with Betaplate scintillation cocktail (Pharmacia/LKB) and counted in the Betaplate counter (Pharmacia/LKB). […]

RT (WT) [1] = biological target: T2, RT (WT) (Human immunodeficiency virus type 1 group M subtype B, UniProt P04585); conditions: same in vitro tests used for the compounds of the invention; cited from earlier work
AIDS = conditions: cited from earlier work
RT (WT) [2] = biological target: T2, RT (WT); test: Reverse Transcriptase (RT) Assay, wild type; format: biochemical, HIV-1; parameters: Heterodimeric RT was eluted using a descending gradient; made in house; host or cells: E. coli (clone pKRT2, obtained from Yale University); conditions: read-out: RT (WT) Assay % inh. (1 μM)
Excerpt: as §1, §2
The HIV-1 RT expression clone, pKRT2, was obtained from Yale University (3). An overnight culture, grown in 2×YT medium (37° C., 225 rpm) (4), supplemented with 100 μg/mL ampicillin for positive selection was used to inoculate the 2×YT medium. The culture is incubated (37° C., 225 rpm) until it reaches an OD600 of 0.6-0.9. At that time the repressor inhibitor IPTG (isopropyl β-D-thiogalactopyranoside) is added to 0.5 mM, and the mixture is incubated for 2 additional hours.
Purification of recombinant reverse transcriptase was performed using a combination of methods previously described (5). This procedure is summarized briefly as follows: Bacteria were pelleted E. Coli containing RT-1 wt or RT-1 (Y181 C) were suspended in 50 mM MES, pH 6.0 containing 10% glycerol, lysed in a french press, centrifuged, and the supernates discarded. Lysate pellets were extracted with buffer A (50 mM MES, pH 6.0, 100 mM KCl, 50 mM KPi, 10% glycerol, 0.02% hexyl β-glucoside), and re-centrifuged; nucleic acid in supernates was precipitated with 0.1% polyethylenimine. […] Bound RT was eluted with a gradient of 0 to 1.0M (NH4)2 SO4 in buffer B. Heparin-Sepharose fractions containing RT were concentrated (Amicon YM-30 membrane), combined with equal volumes of 2.0M (NH4)2 SO4 in buffer B and injected onto a 21.5×150 mm TSK Phenyl-5PW HIC HPLC column (Phenomenex). Heterodimeric RT was eluted using a descending gradient of 1.0M to 0M (NH4)2 SO4 in buffer B, concentrated, and stored at 4° C.
The 2.4× concentrated stock reaction mixture is aliquoted and stored at -20° C. […] This enzyme assay has been adapted to a 96 well microtiter plate system, and has been previously described (6). Tris buffer (50 mM, pH 7.8), vehicle (solvent diluted to match the compound dilution), or compounds in vehicle are dispensed into 96-well microtiter plates (10 μL/well; 3 wells/compound). The HIV-1 RT enzyme is thawed, diluted in 50 mM Tris pH 7.8 containing 0.05% Chaps to give 1.5 nM enzyme and 25 μL are dispensed per well. Ten μL of 0.5M EDTA are added to the first three wells of the microtiter plate. EDTA chelates the Mg^++ present and prevents reverse transcription. This group serves as background polymerization which is subtracted from all other groups. Twenty-five μl of the 2.4× reaction mixture are added to all wells and the assay is allowed to incubate at room temperature for 30 minutes. The assay is terminated by precipitating the DNA in each well with 60μL of sodium pyrophosphate (2% w/v) in 10% trichloracetic acid (TCA) (10% w/v). The microtiter plate is incubated for 15 minutes at 4° C. and the precipitate is harvested onto #30 glass fiber paper (Schleicher & Schuell) using a Tomtech 96-well harvester. The filters are then dried, placed into plastic bags with Betaplate scintillation cocktail (Pharmacia/LKB) and counted in the Betaplate counter (Pharmacia/LKB).
The calculation for percent inhibition is as follows: [formula]

[3] = tested on: HTLV-IIIB strain of HIV-1 (in C8166-45 cells); test: Syncytia (human T-cell culture) Assay; format: cell-based; conditions: Human immunodeficiency virus 1, T-cell; C8166-45 cells, HTLV-IIIB strain, 72 hours; read-out: Syncytia Assay IC50
Procedure: Formation of syncytia is a feature of in vitro cultures of CD4+ T-cells infected with HIV-1. In this assay (1), T-cells are treated with a putative replication inhibiting compound and then infected with HIV-1. After incubation, the culture is checked for the formation of syncytia. The absence or reduction in the number of syncytia is used as a measure of the test compound's ability to inhibit HIV replication.
The target cells, designated C8166-45, are a fusion of umbilical blood lymphocytes and T-cells from leukemia-lymphoma patients and are established at an initial density of 5×10^4 per 90 μl in RPMI 1640 (+10% fetal bovine serum) culture medium in 96 well flat bottom plates. A selected amount of test compound, dissolved in DMSO, is included. 50 TCID50 's (the dose that results in induced effect in 50% of test cultures) of the HTLV-IIIB strain of HIV-1 (3) are inoculated into each culture. Control cultures receive compound or virus only.
The cultures are incubated for 72 hours (4), at 37° C. with 5% carbon dioxide, and then visually examined for the frequency and distribution of virus-induced giant cell syncytia. The percent inhibition by the test compound is determined by comparison with control values.

C8166-45 cell line = test: MTT Assay (cytotoxicity); format: cell-based, human; conditions: C8166-45 cells, five days

Row | Compound | inhibition at 1 µM (RT (WT) [2]) | MTT Assay CC30 (C8166-45 cell line) | other results
1 | 2-Chloro-5,11-dihydro-11-ethyl-8-[2-(3-methylsulfonamidophenyl)ethyl]-6H-dipyrido[3,2-b:2',3'-e][1,4]diazepin-6-one [Example 25] | – | – | RT (Y181C) Assay % inh. (1 μM) (RT (Y181C)): 70%
2 | 5,11-Dihydro-11-ethyl-5-methyl-8-phenylethynyl-6H-dipyrido[3,2-b:2',3'-e][1,4]diazepin-6-one [Example 48] | – | – | RT (Y181C) Assay % inh. (1 μM) (RT (Y181C)): 17%
3 | Cc1ccnc2c1NC(=O)c1cccnc1N2C1CC1 [11-cyclopropyl-5,11-dihydro-4-methyl-6H-dipyrido[3,2-b;2',3', -e][1,4]diazepine-6-one] | – | – | active in the same in vitro tests (RT (WT) [1]): active in the same in vitro tests; active in the treatment of AIDS in human tests (AIDS): active in the treatment of AIDS in human tests
4 | CCN1c2ncc(/C=C/c3ccncc3)cc2C(=O)N(C)c2cccnc21 [Example 1, 5,11-Dihydro-11-ethyl-5-methyl-8-[trans-2-(pyrid-4-yl)ethen-1-yl]-6H H-dipyridol[3,2-b:2',3'-e][1,4]diazepin-6-one] | 32% | – | –
5 | CCN1c2ncc(CCc3ccncc3)cc2C(=O)N(C)c2cccnc21 [Example 2, 5,11-Dihydro-11-ethyl-5-methyl-8-[2-(pyrid-4-yl)ethyl]-6H-dipyrido[3,2-b:2',3'-e][1,4]diazepin-6-one] | 95% | > 60000 nM | IC50 [3]: 20 nM
6 | CCN1c2ncc(CCc3ccncc3)cc2C(=O)N(C)c2ccc(Cl)nc21 [Example 3, 2-Chloro-5,11-dihydro-11ethyl-5methyl-8-[2-(pyrid-4-yl)ethyl]-6H-dipyrido-[3,2-b:2',3'-e][1,4]diazepin-6-one] | 95% | 70000 nM | IC50 [3]: 10 nM
7 | CCN1c2ncc(CCc3ccncc3)cc2C(=O)N(C)c2ccc(C#N)nc21 [Example 4, 2-Cyano-5,11-dihydro-11-ethyl-8-[2-(4-pyridyl)ethyl]-5-methyl-6H-dipyrido-[3,2-b:2',3'-e][1,4]diazepin-6-one] | 82% | – | –
8 | CCN1c2ncc(CCc3ccncc3)cc2C(=O)N(C)c2ccc(N)nc21 [Example 5, 2-Amino-5,11-dihydro-11-ethyl-8-[2-(4-pyridil)ethyl]-5-methyl-6H -dipyrido[3,2-b:2',3'-e][1,4]diazepin-6-one] | 68% | – | –
9 | CCN1c2ncc(CCc3ccncc3)cc2C(=O)N(C)c2ccc(O)nc21 [Example 6, 5,11-Dihydro-11-ethyl-2-hydroxy-8-[2-(4-pyridil)ethyl]5-methyl-6H-dipyrido[3,2-b:2',3'-e][1,4]diazepin-6-one] | 21% | > 256000 nM | –
